This is an account of results in patent publication US20040006094A1, “4-pyrimidinamine derivatives, pharmaceutical compositions and related methods” (priority 2000, published 2004).

Assay [1] deals with differentiated P19 neurons. In words: Differentiated P19 excitotoxicity assay: neuroprotection by known kinase inhibitors against glutamate/glycine (Alamar Blue, CFDA). Format: cell-based, murine. The following applies: for IC50: read-out: IC50 for Neuroprotection [lower-upper 95% C.I.]. How it is done:
Data points are the average±standard error of three separate experiments.
These cells were used to measure the effects of various known kinase inhibitors (Compound Identification (ID) column in Table I) upon cytotoxicity-induced by NMDA. First, P19 cells were differentiated as described in Example 2. Then cells were exposed to 3 mM of glutamate in the presence of 1 mM glycine.
Cell viability was determined. Compounds that prevented excitotoxicity were determined by measuring the percentage of viable cells compared to differentiated P19 cells that were not presented with a toxic insult (Table I).
Cell viability was measured using two methods. The first method was a confocal, single-cell fluorescence imaging-based method using the live cell dye carboxy-fluorescein diacetate (CFDA). CFDA labels the cell bodies and processes of living cells. […] CFDA fluorescence was measured using a modified Attofluor Imager device (Atto Instruments, Rockville Pike, Md.). Cells were labeled with 1 uM CFDA for 15 min in media, then placed onto the stage of the Attofluor microscope. The dye was excited by light from a mercury lamp source passed through a 488 nm bandpass filter of 10 nm band width, passed through a CARV real-time confocal spinning disk module (Atto Instruments, Rockville, Md.), and then passed through a 40×oil immersion objective (Zeiss Fluar, NA=1.3). Emitted light was transmitted through a 495 nm dichroic mirror, collected to an Attofluor intensified CCD camera, and images were visualized using Attofluor Ratio Vision software (Atto Instruments, Rockville, Md.).
The second method for measuring cell viability was a plate reader method. Cells plated into black 96 well plates (Packard viewplates) were loaded with 5% Alamar Blue dye (Biosource International). Alamar Blue is a dye that takes advantage of mitochondrial reductases to convert non-fluorescent resazurin to fluorescent resorufin (excitation 535 nm, emission 580 nm). Baseline fluorescence counts were read at room temperature in a Wallac plate reader immediately after addition of Alamar blue. Fluorescence counts of cell viability were taken the same way after 1 hour incubation at 37° C. Fluorescence was expressed as a percent of control, untreated cells after subtraction of background fluorescence. Live/dead cells were confirmed visually with a light microscope.
Kinase inhibition activities and potencies were derived from the literature (Chijiwa et al. 1990; Favata et al. 1998; Henry et al. 1998; Inhorn and Majerus 1987; Kobayashi et al. 1989; Lee et al. 1994; Onoda et al. 1989; Tokumitsu et al. 1990). […] Curves were fit, and confidence intervals were determined using GraphPad Prism software.

For a further assay, the system named is PKC. The following applies: read-out: Potency, IC50, PKC; cited from earlier work.
A further assay has as its target PKA (Homo sapiens, UniProt P17612). The following applies: read-out: Potency, IC50, PKA; cited from earlier work.
Another assay addresses T1, PKG (Homo sapiens, UniProt Q13976).
T1 sequence (Q13976 1-671): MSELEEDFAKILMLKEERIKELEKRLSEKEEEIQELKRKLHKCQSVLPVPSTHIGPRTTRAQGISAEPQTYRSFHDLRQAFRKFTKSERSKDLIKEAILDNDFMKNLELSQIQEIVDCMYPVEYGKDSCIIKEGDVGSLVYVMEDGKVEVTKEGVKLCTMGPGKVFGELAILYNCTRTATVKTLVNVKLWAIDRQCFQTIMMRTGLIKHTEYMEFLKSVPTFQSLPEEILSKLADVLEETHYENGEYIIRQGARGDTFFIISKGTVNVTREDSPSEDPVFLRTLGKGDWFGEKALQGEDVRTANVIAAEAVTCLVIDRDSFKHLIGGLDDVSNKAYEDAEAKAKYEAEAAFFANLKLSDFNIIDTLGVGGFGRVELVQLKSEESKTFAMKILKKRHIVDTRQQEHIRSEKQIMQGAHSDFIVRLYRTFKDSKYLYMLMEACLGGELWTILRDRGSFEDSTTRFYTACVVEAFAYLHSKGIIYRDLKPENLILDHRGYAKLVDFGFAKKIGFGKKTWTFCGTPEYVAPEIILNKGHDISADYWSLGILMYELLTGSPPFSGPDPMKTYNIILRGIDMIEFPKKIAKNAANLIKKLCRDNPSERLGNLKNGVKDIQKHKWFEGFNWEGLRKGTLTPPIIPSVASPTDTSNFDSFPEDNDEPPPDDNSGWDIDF
The following applies: read-out: Potency, IC50, PKG; cited from earlier work.

Another assay addresses p60^c-src (Homo sapiens, UniProt P12931). As to conditions: read-out: Potency, IC50, p60^c-src; cited from earlier work.
Another assay has as its system P19 neurons. In words: Post-treatment time course of neuroprotection in P19 neurons (delayed neuroprotection). The assay is classed as cell-based, murine. As to conditions: compound added after glutamate challenge. The source says: Time-course of efficacy is an extremely relevant parameter for a potential neuroprotective therapeutic agent, since the therapeutic would need to be administered hours to days after an ischemic event and still retain efficacy.

The next assay deals with CAMKII. The following applies: read-out: Potency, Ki, CAMKII; cited from earlier work.
A further assay concerns the target EGF receptor (Homo sapiens, UniProt P00533). The following applies: read-out: Potency, IC50, EGF receptor; cited from earlier work.
A further assay relates to Male Wistar rats. Briefly: Transient model of cerebral ischemia in rats (lesion volume). Format: in vivo, rat. As to conditions: 3 mg/kg, i.p., 1 hr post ischemia onset; 24 h; average of 12. The method, then:
Male Wistar rats (Iffa Crédo, France), weighing 250-300 g, were housed 2 per cage under a light-dark cycle of 12 hr-12 hr (light on at 7:00 a.m., off at 7:00 p.m.) at a room temperature of 21±2° C., with 50±15% humidity, for a minimum of 5 days before the experiments. During this time, the rats had free access to commercial rat chow (Trouw Nutrition France, Vigny, France, ref. 811002) and tap water.
The animals were anaesthetized with 5% halothane in air for induction, then 1-2% halothane during surgery. The rat's body temperature was maintained at 37° C. with a heating pad. A 2 cm incision was made at the center of the neck and the right common carotid artery (CCA), external carotid artery (ECA) and internal carotid artery (ICA) were exposed under an operating microscope. The ICA was further dissected to identify the pterygopalatine artery (PA) branch and the intracranial ICA branch. The CCA was ligated. A 3-0 silk suture was tied at the origin of the ECA and ligated. A catheter (id=0.58 mm) was introduced into the CCA through a small puncture and advanced to the intracranial branch of the ICA. A 4-0 surgical nylon suture was introduced into the catheter. A length of approximately 19 mm of nylon suture was gently advanced from the CCA into the lumen of the ICA until the suture blocked the origin of the MCA. The suture was sealed into the catheter by heat, leaving 1 cm of catheter protruding so the suture could be withdrawn to allow reperfusion. The incision was closed using skin clips. Anaesthesia was then terminated and the animals were placed under heat lamps until recovery from anaesthesia. The rats awakened 10-15 min later. After 2 hr of ischemia, reperfusion was performed by withdrawal of the suture until the tip cleared the ICA lumen. Vehicle or test compound was administered intraperitoneally (i.p.) or intravenously (i.v.) at 1 hr post ischemia onset.
24 h after the onset of occlusion, the rats were killed by decapitation. The brains were immediately removed, frozen in isopentane and stored at −20° C. The brains were then cut in 20 μm thick sections in a cryocut. Every 20th slice was used to measure infarct area. The sections were stained with cresyl violet and the areas of infarct in the striatum and cortex were determined by planimetry using an image analysis software (Image, NIH) after digitalization of the section images.
Following the procedure described above, MK-801, compound #46 and compound #264 (as listed in the Tables herein) were evaluated for neuroprotective effects in rats with results as listed in Table VIII. The data represent average lesion volume in mm^3 for 12 measurements. Vehicle used was 15% solutol in 5% dextrose.

The next assay has as its target NMDA receptor (Mus musculus, UniProt P35436+P35438+Q01097). As to conditions: P19 membranes, concentration-dependent.
For assay [2], the system named is NMDA receptor-mediated intracellular calcium response. Briefly: Fura-2 imaging of glutamate/glycine-induced intracellular calcium response in P19 neurons. The assay is classed as cell-based, murine. The following applies: 100 μM MK-801, 24 hours prior to assay; 3 mM glutamate, 1 mM glycine. The method, then: MK-801 was administered 24 hours prior to assay. […] MK-801 concentrations are expressed as 10^−x Molar. […] (FIG. 1B).
U0126 was administered concurrently with glutamate and glycine.

[3] abbreviates: 3 mM glutamate, 1 mM glycine, mean of three separate curves.

Structures are written as SMILES.

p60^c-src, sequence (P12931 whole entry): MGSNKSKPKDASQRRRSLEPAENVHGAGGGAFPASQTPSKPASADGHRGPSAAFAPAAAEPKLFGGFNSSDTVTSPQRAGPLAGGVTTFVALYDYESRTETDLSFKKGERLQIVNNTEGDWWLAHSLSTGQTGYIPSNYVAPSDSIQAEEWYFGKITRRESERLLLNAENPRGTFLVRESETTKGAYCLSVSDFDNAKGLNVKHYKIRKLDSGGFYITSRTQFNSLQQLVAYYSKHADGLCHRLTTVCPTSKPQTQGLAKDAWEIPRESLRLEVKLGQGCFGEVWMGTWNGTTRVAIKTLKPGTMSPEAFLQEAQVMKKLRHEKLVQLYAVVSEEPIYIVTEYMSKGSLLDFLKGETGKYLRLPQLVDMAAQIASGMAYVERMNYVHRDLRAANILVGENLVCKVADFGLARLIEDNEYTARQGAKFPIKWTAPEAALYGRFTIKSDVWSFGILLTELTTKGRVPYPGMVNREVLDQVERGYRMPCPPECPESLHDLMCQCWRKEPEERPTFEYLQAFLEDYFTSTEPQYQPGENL
EGF receptor, sequence (P00533 25-1210): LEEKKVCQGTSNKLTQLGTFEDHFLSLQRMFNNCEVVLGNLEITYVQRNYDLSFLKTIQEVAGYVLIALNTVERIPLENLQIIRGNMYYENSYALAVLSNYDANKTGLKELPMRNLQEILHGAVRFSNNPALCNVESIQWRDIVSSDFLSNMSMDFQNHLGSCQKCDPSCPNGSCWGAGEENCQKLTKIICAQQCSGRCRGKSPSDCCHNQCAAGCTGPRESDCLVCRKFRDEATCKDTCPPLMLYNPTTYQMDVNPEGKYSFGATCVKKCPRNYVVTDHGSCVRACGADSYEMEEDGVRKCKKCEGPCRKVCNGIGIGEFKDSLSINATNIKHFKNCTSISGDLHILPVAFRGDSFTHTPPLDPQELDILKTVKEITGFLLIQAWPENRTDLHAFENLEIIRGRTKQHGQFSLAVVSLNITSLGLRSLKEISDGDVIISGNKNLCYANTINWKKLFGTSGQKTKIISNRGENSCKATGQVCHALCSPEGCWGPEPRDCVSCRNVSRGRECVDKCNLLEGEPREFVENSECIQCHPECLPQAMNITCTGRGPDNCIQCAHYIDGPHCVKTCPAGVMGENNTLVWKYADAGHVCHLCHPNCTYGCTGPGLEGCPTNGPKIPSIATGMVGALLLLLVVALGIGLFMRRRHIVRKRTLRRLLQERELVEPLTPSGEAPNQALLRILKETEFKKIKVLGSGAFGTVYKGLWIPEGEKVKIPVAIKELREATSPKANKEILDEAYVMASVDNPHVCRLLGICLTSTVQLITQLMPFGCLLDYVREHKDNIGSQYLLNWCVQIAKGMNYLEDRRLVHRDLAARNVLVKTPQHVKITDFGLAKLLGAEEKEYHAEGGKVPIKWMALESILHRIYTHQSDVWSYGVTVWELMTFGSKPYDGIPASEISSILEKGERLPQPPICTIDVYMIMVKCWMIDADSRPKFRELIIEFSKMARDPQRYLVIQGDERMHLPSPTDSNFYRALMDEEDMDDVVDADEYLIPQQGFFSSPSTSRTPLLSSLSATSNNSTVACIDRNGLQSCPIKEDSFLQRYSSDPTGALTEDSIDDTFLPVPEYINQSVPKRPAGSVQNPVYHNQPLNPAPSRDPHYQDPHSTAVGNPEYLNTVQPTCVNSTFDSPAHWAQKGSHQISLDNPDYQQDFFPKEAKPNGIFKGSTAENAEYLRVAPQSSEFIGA
NMDA receptor, sequence (P35436 23-1464, other chains not shown): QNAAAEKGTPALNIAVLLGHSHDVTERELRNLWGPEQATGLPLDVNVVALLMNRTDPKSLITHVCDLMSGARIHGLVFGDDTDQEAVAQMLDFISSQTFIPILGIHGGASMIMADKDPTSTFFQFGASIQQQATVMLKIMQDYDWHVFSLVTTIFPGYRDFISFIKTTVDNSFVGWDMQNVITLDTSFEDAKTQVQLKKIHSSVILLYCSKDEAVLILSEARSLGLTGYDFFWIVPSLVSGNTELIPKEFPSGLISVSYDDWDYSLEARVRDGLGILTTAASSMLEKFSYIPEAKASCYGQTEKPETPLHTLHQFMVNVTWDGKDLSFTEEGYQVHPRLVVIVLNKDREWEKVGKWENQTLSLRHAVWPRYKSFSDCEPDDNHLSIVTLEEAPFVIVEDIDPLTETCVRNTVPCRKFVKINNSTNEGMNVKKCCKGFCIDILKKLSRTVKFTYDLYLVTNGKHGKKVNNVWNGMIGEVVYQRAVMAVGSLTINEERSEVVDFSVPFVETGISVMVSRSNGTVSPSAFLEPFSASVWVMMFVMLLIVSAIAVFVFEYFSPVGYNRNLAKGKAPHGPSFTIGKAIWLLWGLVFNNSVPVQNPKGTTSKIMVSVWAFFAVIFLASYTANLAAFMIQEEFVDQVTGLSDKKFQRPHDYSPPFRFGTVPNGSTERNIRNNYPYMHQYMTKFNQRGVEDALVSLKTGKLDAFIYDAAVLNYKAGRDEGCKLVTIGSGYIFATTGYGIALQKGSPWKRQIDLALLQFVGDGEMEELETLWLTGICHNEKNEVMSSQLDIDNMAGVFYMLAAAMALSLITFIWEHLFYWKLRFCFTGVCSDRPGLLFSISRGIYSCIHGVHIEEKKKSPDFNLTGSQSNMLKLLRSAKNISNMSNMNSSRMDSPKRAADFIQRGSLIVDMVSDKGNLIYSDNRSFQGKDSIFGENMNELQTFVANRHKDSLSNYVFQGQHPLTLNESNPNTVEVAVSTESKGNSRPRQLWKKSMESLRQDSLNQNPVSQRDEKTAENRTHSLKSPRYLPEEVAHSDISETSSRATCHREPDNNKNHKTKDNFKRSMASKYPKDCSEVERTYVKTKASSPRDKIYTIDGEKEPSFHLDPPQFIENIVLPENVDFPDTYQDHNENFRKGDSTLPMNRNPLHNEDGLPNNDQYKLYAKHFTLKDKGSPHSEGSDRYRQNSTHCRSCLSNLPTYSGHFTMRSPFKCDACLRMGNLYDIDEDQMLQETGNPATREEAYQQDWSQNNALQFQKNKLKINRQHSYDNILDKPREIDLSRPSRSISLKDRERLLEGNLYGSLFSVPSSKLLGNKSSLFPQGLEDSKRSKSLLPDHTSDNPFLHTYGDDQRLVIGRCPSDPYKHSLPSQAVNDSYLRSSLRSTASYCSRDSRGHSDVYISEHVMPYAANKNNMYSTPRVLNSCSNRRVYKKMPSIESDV
NMDA receptor, sequence (Q01097 27-1482, other chains not shown): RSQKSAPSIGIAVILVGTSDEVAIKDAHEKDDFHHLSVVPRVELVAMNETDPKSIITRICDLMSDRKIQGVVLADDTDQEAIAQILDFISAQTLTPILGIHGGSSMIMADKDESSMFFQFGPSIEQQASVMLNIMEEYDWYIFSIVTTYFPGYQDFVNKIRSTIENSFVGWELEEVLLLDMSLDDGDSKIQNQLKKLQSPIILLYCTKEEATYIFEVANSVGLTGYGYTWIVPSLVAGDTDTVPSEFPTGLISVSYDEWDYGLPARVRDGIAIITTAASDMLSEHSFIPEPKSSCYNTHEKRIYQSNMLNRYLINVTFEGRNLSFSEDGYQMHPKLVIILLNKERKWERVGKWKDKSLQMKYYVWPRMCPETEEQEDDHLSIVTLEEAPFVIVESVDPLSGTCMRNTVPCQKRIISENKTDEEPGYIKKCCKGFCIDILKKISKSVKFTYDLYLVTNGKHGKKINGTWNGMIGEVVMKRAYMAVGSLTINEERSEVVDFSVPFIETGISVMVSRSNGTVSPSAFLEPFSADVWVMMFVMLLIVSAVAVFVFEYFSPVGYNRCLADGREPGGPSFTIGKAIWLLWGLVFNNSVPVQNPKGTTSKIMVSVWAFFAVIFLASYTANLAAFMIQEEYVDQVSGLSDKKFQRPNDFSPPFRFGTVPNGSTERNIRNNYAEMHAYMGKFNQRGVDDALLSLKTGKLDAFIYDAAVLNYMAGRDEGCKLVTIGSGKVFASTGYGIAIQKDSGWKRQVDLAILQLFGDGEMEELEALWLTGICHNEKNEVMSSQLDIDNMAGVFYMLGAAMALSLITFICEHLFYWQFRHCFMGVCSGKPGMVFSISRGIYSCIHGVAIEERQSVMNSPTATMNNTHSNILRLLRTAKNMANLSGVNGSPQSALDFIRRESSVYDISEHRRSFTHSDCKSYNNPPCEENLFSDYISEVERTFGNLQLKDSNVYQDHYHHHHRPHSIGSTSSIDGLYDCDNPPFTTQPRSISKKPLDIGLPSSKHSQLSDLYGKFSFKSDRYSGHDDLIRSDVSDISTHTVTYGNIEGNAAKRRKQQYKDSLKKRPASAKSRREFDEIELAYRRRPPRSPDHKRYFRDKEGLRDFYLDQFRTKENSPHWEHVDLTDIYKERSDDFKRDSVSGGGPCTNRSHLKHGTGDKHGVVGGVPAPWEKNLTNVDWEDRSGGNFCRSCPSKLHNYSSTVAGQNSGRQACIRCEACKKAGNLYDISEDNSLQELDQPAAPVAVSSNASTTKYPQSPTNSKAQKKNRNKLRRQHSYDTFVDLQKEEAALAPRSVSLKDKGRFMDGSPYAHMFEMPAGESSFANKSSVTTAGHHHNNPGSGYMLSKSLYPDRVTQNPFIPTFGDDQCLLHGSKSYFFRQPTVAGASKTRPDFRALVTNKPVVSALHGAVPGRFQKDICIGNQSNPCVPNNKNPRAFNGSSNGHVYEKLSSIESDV

For the compound `COc1c(C[C@@H](C)OC(=O)Oc2ccc(O)cc2)c2c3c(C[C@@H](C)OC(=O)c4ccccc4)c(OC)c(=O)c4c(O)cc(OC)c(c5c(OC)cc(O)c(c1=O)c52)c43` [Calphostin C], the “Maximal Efficacy for Neuroprotection” value in assay [1] (3 mM glutamate, 1 mM glycine) is on record as “˜50%”. In addition, the IC50 in [1] (setting [3]) is greater than 1000 nM; in the assay on PKC it was roughly 50 nM; at PKA, greater than 50000 nM; on PKG, greater than 25000 nM; on p60^c-src, greater than 50000 nM.
In the case of `COc1cc(N)nc2[nH]c(-c3ccc(F)cc3)c(-c3ccncc3)c12` [Compound A], the “time after glutamate challenge at which efficacy was lost” value with P19 neurons is 15 min.
As to `O=S(=O)(NCCNC/C=C/c1ccc(Br)cc1)c1cccc2cnccc12` [H-89], in assay [1] (3 mM glutamate, 1 mM glycine), the “Maximal Efficacy for Neuroprotection” value is given as less than 25%. Moreover, in assay [1] (setting [3]), the IC50 is greater than 10000 nM. Further, the Ki on CAMKII is roughly 30000 nM.
Turning to `CN([C@@H](Cc1ccc(OS(=O)(=O)c2cccc3cnccc23)cc1)C(=O)N1CCN(c2ccccc2)CC1)S(=O)(=O)c1cccc2cnccc12` [KN62], the “Maximal Efficacy for Neuroprotection” value in assay [1] (3 mM glutamate, 1 mM glycine) was less than 10%. Moreover, in [1] (setting [3]), the “IC50 for Neuroprotection [lower-upper 95% C.I.]” value is “Ineffective”. For the same compound, the Ki on CAMKII was roughly 900 nM.
As to `O=C(O)c1cc(N(Cc2ccccc2O)Cc2cc(O)ccc2O)ccc1O` [Lavendustin A], in assay [1] (3 mM glutamate, 1 mM glycine), the “Maximal Efficacy for Neuroprotection” value was less than 25%. Also, the IC50 in assay [1] (setting [3]) was greater than 10000 nM; at EGF receptor, roughly 11 nM; on p60^c-src, roughly 500 nM.
For the compound `C[C@]12N[C@H](Cc3ccccc31)c1ccccc12` [MK-801, reference compound], the “Maximal protection against glutamate toxicity” value in [1] (3 mM glutamate and 1 mM glycine) was “close to control levels”. For the same compound, in the assay with Male Wistar rats, the “Cortex + Striatum Vol. (mm^3)” value turned out to be 205.4 ± 28.0 mm^3, the “Cortex Vol. (mm^3)” value is recorded as 135.0 ± 26.1 mm^3 and the “Striatum Vol. (mm^3)” value was determined as 70.4 ± 2.9 mm^3. The “inhibition of [3H]-MK-801 binding achieved” value at NMDA receptor is listed as 100%. The “effect on intracellular calcium response to NMDA receptor agonists” value in assay [2] is listed as “significantly inhibited this response”.
